The structures appear in SMILES notation. Like-named read-outs stand apart in the source and are kept apart here.

The target in this experiment is IDH1 R132H (Homo sapiens (Human), UniProt O75874, R132H). Nature of the experiment: Assays for IDH1 R132H Inhibitors (NADPH/aKG, resazurin detection). The class given is biochemical. The method in brief: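 Mutant enzyme in 150 mM NaCl, 10 mM MgCl2, 20 mM Tris pH 7.5, 0.03% BSA; compound in DMSO added to substrate mix of 8 uM NADPH and 2 mM aKG. Reaction ran 50 min at room temperature, then resazurin detection mix (30 μM) added for 5 min at room temperature.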
IDH1 R132H, sequence (O75874 whole entry R132H): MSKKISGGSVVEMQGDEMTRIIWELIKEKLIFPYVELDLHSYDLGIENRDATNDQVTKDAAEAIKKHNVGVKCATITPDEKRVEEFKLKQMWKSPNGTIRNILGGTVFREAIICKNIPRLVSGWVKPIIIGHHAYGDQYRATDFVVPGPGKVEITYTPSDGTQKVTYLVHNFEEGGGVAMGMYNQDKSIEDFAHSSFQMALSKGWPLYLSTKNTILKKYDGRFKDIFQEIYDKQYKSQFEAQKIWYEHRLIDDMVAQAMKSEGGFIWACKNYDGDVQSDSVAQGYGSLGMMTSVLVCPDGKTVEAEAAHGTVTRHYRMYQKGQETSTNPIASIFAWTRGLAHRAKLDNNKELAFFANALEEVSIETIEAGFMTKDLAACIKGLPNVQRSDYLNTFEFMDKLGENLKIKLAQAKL
On the technique in general: Resazurin is reduced to fluorescent resorufin, in cell work by metabolically active cells.

[1] abbreviates: IDH1 R132H enzyme, Table 2, read-out: IDHR132H Activity.

As for `Cc1ccoc1C(=O)N1CCN(c2nc(C3CCCCC3)c3c(c2C#N)CCOC3)C[C@H]1C` [Compound 186, (R)-8-cyclohexyl-6-(3-methyl-4-(3-methylfuran-2-carbonyl)piperazin-1-yl)-3,4-dihydro-1H-pyrano[3,4-c]pyridine-5-carbonitrile], under setting [1], the IC50 lay within 1000 to 10000 nM.
For the compound `CC(C)c1nc(N2CCN(C(=O)Cc3ccccn3)[C@H](C(C)C)C2)c(C#N)c2c1COC(C)(C)C2` [Compound 214, (R)-8-isopropyl-6-(3-isopropyl-4-(2-(pyridin-2-yl)acetyl)piperazin-1-yl)-3,3-dimethyl-3,4-dihydro-1H-pyrano[3,4-c]pyridine-5-carbonitrile], the IC50 under setting [1] was 500 to 1000 nM.
The same measure, in the same setting: to `CC(C)c1nc(N2CCN(C(=O)c3ccco3)CC2c2ccccc2)c(C#N)c2c1COCC2` (centres unmarked) [Compound 111, 6-(4-(furan-2-carbonyl)-2-phenylpiperazin-1-yl)-8-isopropyl-3,4-dihydro-1H-pyrano[3,4-c]pyridine-5-carbonitrile] belongs 1000 to 10000 nM.
Still for that read-out and setting: with `CC(C)c1nc(N2CCN(C(=O)Nc3ccc(F)cc3)CC2)c(C#N)c2c1COCC2` [Compound 102, 4-(5-cyano-8-isopropyl-3,4-dihydro-1H-pyrano[3,4-c]pyridin-6-yl)-N-(4-fluorophenyl)piperazine-1-carboxamide] the figure was 1000 to 10000 nM; with `CC[C@@H]1CN(c2nc(C3CC3)c3c(c2C#N)CC(C)(C)OC3)CCN1C(=O)c1ccoc1` [Compound 235], less than 500 nM.
On to `CC(C)c1nc(N2CCN(C(=O)Cc3cc(F)cc(F)c3)[C@H](C)C2)c(C#N)c2c1COC(C)(C)C2` [Compound 159, (R)-6-(4-(2-(3,5-difluorophenyl)acetyl)-3-methylpiperazin-1-yl)-8-isopropyl-3,3-dimethyl-3,4-dihydro-1H-pyrano[3,4-c]pyridine-5-carbonitrile], for which the IC50 under setting [1] fell in the range of 1000 to 10000 nM.
On the same count and under the same terms, to `COC(=O)CCC(=O)N1CCN(c2nc(C3CC3)c3c(c2C#N)CC(C)(C)OC3)C[C@H]1C(C)C` [Compound 412, (R)-methyl 4-(4-(5-cyano-8-cyclopropyl-3,3-dimethyl-3,4-dihydro-1H-pyrano[3,4-c]pyridin-6-yl)-2-isopropylpiperazin-1-yl)-4-oxobutanoate] belongs less than 500 nM.
`CC1(C)Cc2c(C#N)c(N3CCN(C(=O)c4ccco4)CC3)nc(C3CC3)c2CO1` [Compound 142, 8-cyclopropyl-6-(4-(furan-2-carbonyl)piperazin-1-yl)-3,3-dimethyl-3,4-dihydro-1H-pyrano[3,4-c]pyridine-5-carbonitrile] registered an IC50 of 1000 to 10000 nM.
As for `N#Cc1c(N2CCN(C(=O)Cc3ccccc3)CC2)nc(C2CCCCC2)c2c1CCOC2` [Compound 131, 8-cyclohexyl-6-(4-(2-phenylacetyl)piperazin-1-yl)-3,4-dihydro-1H-pyrano[3,4-c]pyridine-5-carbonitrile], the IC50 under setting [1] lay within 1000 to 10000 nM.
With `CC(C)[C@@H]1CN(c2nc(C3CC3)c3c(c2C#N)CC(C)(C)OC3)CCN1C(=O)COCc1ccco1` [Compound 404, (R)-8-cyclopropyl-6-(4-(2-(furan-2-ylmethoxy)acetyl)-3-isopropylpiperazin-1-yl)-3,3-dimethyl-3,4-dihydro-1H-pyrano[3,4-c]pyridine-5-carbonitrile], the IC50 under setting [1] lay in the range of 1000 to 10000 nM.
For the compound `N#Cc1c(N2CCN(C(=O)c3cccc4[nH]ccc34)CC2)nc(C2CCCCC2)c2c1CCOC2` [Compound 119, 6-(4-(1H-indole-4-carbonyl)piperazin-1-yl)-8-cyclohexyl-3,4-dihydro-1H-pyrano[3,4-c]pyridine-5-carbonitrile], the IC50 under setting [1] lay in the range of 1000 to 10000 nM.
`C[C@@H]1CN(c2nc(C3CCCCC3)c3c(c2C#N)CCOC3)CCN1C(=O)c1cnc2ccccn12` [Compound 227, (R)-8-cyclohexyl-6-(4-(imidazo[1,2-a]pyridine-3-carbonyl)-3-methylpiperazin-1-yl)-3,4-dihydro-1H-pyrano[3,4-c]pyridine-5-carbonitrile]: the IC50 under setting [1] lay in the range of 1000 to 10000 nM.
In the case of `CC(C)[C@@H]1CN(c2nc(C3(C)CC3)c3c(c2C#N)CC(C)(C)OC3)CCN1C(=O)c1ccoc1` [Compound 386], the IC50 under setting [1] lay within 1000 to 10000 nM.
As to `CC1CN(c2nc(C3CC3)c3c(c2C#N)CC(C)(C)OC3)CC(F)CN1C(=O)C1CC1` (centres unmarked) [Compound 474, 6-(4-(cyclopropanecarbonyl)-6-fluoro-3-methyl-1,4-diazepan-1-yl)-8-cyclopropyl-3,3-dimethyl-3,4-dihydro-1H-pyrano[3,4-c]pyridine-5-carbonitrile], the IC50 (IDH1 R132H enzyme, Table 3, read-out: R132H IC50) was in the range of 500 to 1000 nM.
As for `CCOC(=O)C1CN(c2nc(C(C)C)c3c(c2C#N)CC(C)(C)OC3)CCN1C(=O)Cc1cccs1` (centres unmarked) [Compound 332, ethyl 4-(5-cyano-8-isopropyl-3,3-dimethyl-3,4-dihydro-1H-pyrano[3,4-c]pyridin-6-yl)-1-(2-(thiophen-2-yl)acetyl)piperazine-2-carboxylate], under setting [1], the IC50 was in the range of 500 to 1000 nM.
The same measure, in the same setting: with `C[C@@H]1CN(c2nc(C3CCCCC3)c3c(c2C#N)CCOC3)CCN1C(=O)NC1CC1` [Compound 360, (R)-4-(5-cyano-8-cyclohexyl-3,4-dihydro-1H-pyrano[3,4-c]pyridin-6-yl)-N-cyclopropyl-2-methylpiperazine-1-carboxamide] the figure was 1000 to 10000 nM; with `CCOC(=O)C1CN(c2nc(C3CCCCC3)c3c(c2C#N)CCOC3)CCN1C(=O)CCOC` (centres unmarked) [Compound 278, ethyl 4-(5-cyano-8-cyclohexyl-3,4-dihydro-1H-pyrano[3,4-c]pyridin-6-yl)-1-(3-methoxypropanoyl) piperazine-2-carboxylate], 1000 to 10000 nM.
Take `Cc1cnn(CC(=O)N2CCN(c3nc(C4CC4)c4c(c3C#N)CC(C)(C)OC4)C[C@H]2C(C)C)c1` [Compound 401, (R)-8-cyclopropyl-6-(3-isopropyl-4-(2-(4-methyl-1H-pyrazol-1-yl)acetyl)piperazin-1-yl)-3,3-dimethyl-3,4-dihydro-1H-pyrano[3,4-c]pyridine-5-carbonitrile]: the IC50 under setting [1] was less than 500 nM.
On the same count and under the same terms, with `Cc1occc1C(=O)N1CCN(c2nc(C(C)C)c3c(c2C#N)CCOC3)CC1` [Compound 113, 8-isopropyl-6-(4-(2-methylfuran-3-carbonyl)piperazin-1-yl)-3,4-dihydro-1H-pyrano[3,4-c]pyridine-5-carbonitrile] the figure was 1000 to 10000 nM; with `C[C@@H]1CN(c2nc(C3CCCCC3)c3c(c2C#N)CCOC3)CCN1C(=O)Cc1ccccc1F` [Compound 188, (R)-8-cyclohexyl-6-(4-(2-(2-fluorophenyl)acetyl)-3-methylpiperazin-1-yl)-3,4-dihydro-1H-pyrano[3,4-c]pyridine-5-carbonitrile], 1000 to 10000 nM; with `CC(C)[C@@H]1CN(c2nc(C3CC3)c3c(c2C#N)CC(C)(C)OC3)CCN1C(=O)Cc1cccnc1` [Compound 265], less than 500 nM.
On the same count and under the same terms, with `CC(C)c1nc(N2CCN(C(=O)Cc3ccccn3)[C@H](C)C2)c(C#N)c2c1COC(C)(C)C2` [Compound 218, (R)-8-isopropyl-3,3-dimethyl-6-(3-methyl-4-(2-(pyridin-2-yl)acetyl)piperazin-1-yl)-3,4-dihydro-1H-pyrano[3,4-c]pyridine-5-carbonitrile] the figure was 1000 to 10000 nM.
The same measure, in the same setting: with `CC(C)c1nc(N2CCN(C(=O)Cc3cccs3)[C@H](C)C2)c(C#N)c2c1COC(C)(C)C2` [Compound 158, (R)-8-isopropyl-3,3-dimethyl-6-(3-methyl-4-(2-(thiophen-2-yl)acetyl)piperazin-1-yl)-3,4-dihydro-1H-pyrano[3,4-c]pyridine-5-carbonitrile] the figure was 500 to 1000 nM; with `Cc1occc1C(=O)N1CCN(c2nc(C3CC3)c3c(c2C#N)CC(C)(C)OC3)C[C@H]1C(C)C` [Compound 181], less than 500 nM.
With `Cc1ccc(NC(=O)N2CCN(c3nc(C4CC4)c4c(c3C#N)CC(C)(C)OC4)C[C@H]2C(C)C)cc1` [Compound 301, (R)-4-(5-cyano-8-cyclopropyl-3,3-dimethyl-3,4-dihydro-1H-pyrano[3,4-c]pyridin-6-yl)-2-isopropyl-N-p-tolylpiperazine-1-carboxamide], under setting [1], the IC50 was 1000 to 10000 nM.
The same measure, in the same setting: to `CCC(=O)N1CCN(c2nc(C3CCCCC3)c3c(c2C#N)CCOC3)C[C@H]1C` [Compound 363, (R)-8-cyclohexyl-6-(3-methyl-4-propionylpiperazin-1-yl)-3,4-dihydro-1H-pyrano[3,4-c]pyridine-5-carbonitrile] belongs 1000 to 10000 nM.
On the same count and under the same terms, to `Cc1nc2ccccn2c1C(=O)N1CCN(c2nc(C(C)C)c3c(c2C#N)CC(C)(C)OC3)C[C@H]1C` [Compound 220, (R)-8-isopropyl-3,3-dimethyl-6-(3-methyl-4-(2-methylimidazo[1,2-a]pyridine-3-carbonyl)piperazin-1-yl)-3,4-dihydro-1H-pyrano[3,4-c]pyridine-5-carbonitrile] belongs 1000 to 10000 nM; to `Cc1occc1C(=O)N1CCN(c2nc(C(C)C)c3c(c2C#N)CC(C)(C)OC3)C(c2ccccc2)C1` (centres unmarked) [Compound 179, 8-isopropyl-3,3-dimethyl-6-(4-(2-methylfuran-3-carbonyl)-2-phenylpiperazin-1-yl)-3,4-dihydro-1H-pyrano[3,4-c]pyridine-5-carbonitrile], 1000 to 10000 nM; to `CC(C)c1nc(N2CCN(C(=O)c3ccco3)[C@H](C)C2)c(C#N)c2c1COC(C)(C)C2` [Compound 148, (R)-6-(4-(furan-2-carbonyl)-3-methylpiperazin-1-yl)-8-isopropyl-3,3-dimethyl-3,4-dihydro-1H-pyrano[3,4-c]pyridine-5-carbonitrile], 1000 to 10000 nM.
On the same count and under the same terms, to `CC1CN(c2nc(C3CC3)c3c(c2C#N)CC(C)(C)OC3)CCN1C(=O)c1ccoc1` (centres unmarked) [Compound 136] belongs 1000 to 10000 nM; to `CC(C)[C@@H]1CN(c2nc(C3CC3)c3c(c2C#N)CC(C)(C)OC3)CCN1C(=O)NCCc1ccccc1` [Compound 286], 1000 to 10000 nM; to `C#CCNC(=O)N1CCN(c2nc(C3CCCCC3)c3c(c2C#N)CCOC3)C[C@H]1C` [Compound 361, (R)-4-(5-cyano-8-cyclohexyl-3,4-dihydro-1H-pyrano[3,4-c]pyridin-6-yl)-2-methyl-N-(prop-2-ynyl)piperazine-1-carboxamide], 1000 to 10000 nM.

Source of the values: patent US9662327B2 (AGIOS PHARMACEUTICALS, INC, priority 2011, dated 2017).
